Measurements published in US10004718B2, “Erythropoietin expression promoter” (TOHOKU UNIVERSITY, priority 2012, dated 2018).

How the values were obtained:
[1] = system: mRNA expression of the erythropoietin gene; experiment: Quantitative PCR of erythropoietin mRNA in Hep3B cells; type: cell-based, human; settings: compound 10 μM, 20% O2, GAPDH internal standard
Procedure: Of the 5 types of compounds confirmed in Example 4 to be effective for promoting the transcriptional activity of the erythropoietin gene promoter, 4 types of compounds (compounds #2, 4, 5, and 21) were selected. From Hep3B cells cultured in RPMI1640 common medium 1 supplemented with each of these 4 types of compounds at a concentration of 10 μM, total RNA was extracted using TriPure Isolation Reagent (manufactured by F. Hoffmann La Roche AG) in a 6-well cell culture plate. Hep3B cells cultured in the absence of the compound (DMSO added) (“20% O2/DMSO” of FIG. 4) were used as a negative control. Hep3B cells cultured in the presence of a GATA-specific inhibitor (K7174 [10 μM]) (“20% O2/K7174” of FIG. 4) and Hep3B cells cultured under hypoxia (1% O2) conditions and in the absence of the compound (DMSO added [1%]) (“1% O2/DMSO” of FIG. 4) were used as positive controls.
The extracted RNA was used as a template to synthesize cDNA using SuperScript III RTS First-strand kit (manufactured by Invitrogen Corp.). Then, the expression of the erythropoietin mRNA was measured by quantitative PCR with GAPDH as an internal standard. The quantitative PCR was carried out using TaqMan® Gene Expression Assays (using GAPDH; Assay ID: Rn99999916_s1, and human erythropoietin; Assay ID: Hs00171267_ml TaqMan® probes [manufactured by Applied Biosystems Inc.]) and Step One Plus Real-Time PCR System (manufactured by Applied Biosystems Inc.).

[2] = system: mouse erythropoietin gene promoter; experiment: Luciferase reporter assay of erythropoietin gene promoter in Hep3B cells; type: cell-based; settings: for effect on erythropoietin gene promoter transcriptional activity compared with HIF activator FG-4592: compound 10 μM vs FG-4592 10 μM, 20% O2; for transcription level of the erythropoietin gene promoter: compound 10 μM, 20% O2, 48 hours, vs 20% O2/DMSO
Procedure: A plasmid vector HE-mPro-luc for luciferase assay on the promoter activity of the 5′ upstream transcriptional regulatory region of the mouse erythropoietin gene was prepared by cleaving, with restriction enzymes XbaI and SacI, a region having a length from −571 to +53 bp starting at the translation initiation site of exon 1 of the mouse erythropoietin gene, and inserting this region to a luciferase reporter vector pXP2 (Nordeen S K. BioTechniques. 6: […], 1988).
The Hep3B cells were adjusted to 10×10^4 cells/well in a 24-well cell culture plate and subcultured. Under microscopy, the Hep3B cells that reached a cell density of 70 to 80% were transfected with the plasmid DNA for luciferase reporter assay. The composition of a solution for transfection was prepared by mixing 2 μg of HE-mPro-luc, 50 ng of pRh-TK (manufactured by Promega K.K.), and 2 μl of Lipofectamine 2000 (manufactured by Invitrogen Corp.) with 100 μl of OptiMEM-I (manufactured by Life Technologies, Inc./GIBCO) per well, followed by incubation at room temperature for 20 minutes. The solution was added to the Hep3B cells in the 24-well cell culture plate preincubated in 0.5 ml of serum-free OptiMEM-I medium, and then incubated for 4 hours without serum and antibiotics under conditions of 37° C. and 5% CO2/20% O2. Then, the medium was replaced with RPMI1640 common medium 1 supplemented with each of 5 types of compounds (compounds #2, 4, 5, 18, and 21) at a concentration of 10 μM, followed by further incubation for 48 hours under conditions of 37° C. and 5% CO2/20% O2. Then, the medium was replaced with 0.5 ml of serum-free PBS, and the cells were gently washed, followed by the removal of PBS by suction. This operation was carried out twice. Then, 100 μl of passive lysis buffer (manufactured by Promega K.K.) was added thereto, and the cells were lysed by mixing at room temperature for 20 minutes. Hep3B cells cultured in the absence of the compound (DMSO added [1%]) (“20% O2/DMSO” of FIG. 3) were used as a negative control. Hep3B cells cultured in the presence of an HIF activator (FG-4592 [10 μM]) (“20% O2/FG4592” of FIG. 3) and Hep3B cells cultured under hypoxia (1% O2) conditions and in the absence of the compound (DMSO added [1%]) (“1% O2/DMSO” of FIG. 3) were used as positive controls.
Dual Luciferase Reporter Assay System (manufactured by Promega K.K.) was used in the luciferase reporter assay. The amounts of firefly and Renilla luciferases were measured using a luminometer Lumat LB9507 (manufactured by BERTHOLD TECHNOLOGIES GmbH & Co. KG). The amount of Fire fly luciferase was divided by the amount of Renilla luciferase to calculate the transcriptional activity of the erythropoietin gene.

| SMILES | mRNA expression level of the erythropoietin gene [1] | effect on erythropoietin gene promoter transcriptional activity compared with HIF activator FG-4592 [2] | transcription level of the erythropoietin gene promoter [2] |
| --- | --- | --- | --- |
| O=C(O)C(CCCC(F)(F)C(F)(F)F)c1c[nH]c2ccccc12 (stereo not drawn) [compound #21, α-(4,4,5,5,5-Pentafluoro-1-pentyl)-3-indoleacetic acid] | increase the mRNA expression level | superior to the effect of the existing HIF activator (FG-4592) | increase the transcription level |
| O=C(CC(C(=O)O)c1c[nH]c2ccccc12)c1ccc(F)cc1F (stereo not drawn) [compound #5, 4-(2,4-Difluorophenyl)-2-(1H-indol-3-yl)-4-oxo-butanoic acid] | increase the mRNA expression level | superior to the effect of the existing HIF activator (FG-4592) | increase the transcription level |
| O=C(CC(C(=O)O)c1c[nH]c2ccccc12)c1ccc(F)cc1 (stereo not drawn) [compound #4, 4-(4-Fluorophenyl)-2-(1H-indol-3-yl)-4-oxo-butanoic acid] | increase the mRNA expression level | superior to the effect of the existing HIF activator (FG-4592) | increase the transcription level |
